Species on record: Rattus norvegicus
Assay: DrugMatrix - Regimen: Daily Repeat
Type: toxicity, organism-based, Sprague-Dawley
Design: regimen Daily Repeat, gender Male, age 6-8 weeks
Conditions: in vivo, po, 47 mg/kg, route oral GAVAGE, dose level Low, […]; for ABSOLUTE BASOPHIL / ABSOLUTE EOSINOPHIL / ABSOLUTE LYMPHOCYTE / ABSOLUTE MONOCYTE / ABSOLUTE SEGMENTED NEUTROPHIL / BASOPHIL / EOSINOPHIL / ERYTHROCYTE COUNT / HEMATOCRIT / HEMOGLOBIN / LEUKOCYTE COUNT / LYMPHOCYTE / MEAN CORPUSCULAR HEMOGLOBIN / MEAN CORPUSCULAR HEMOGLOBIN CONCENTRATION / MEAN CORPUSCULAR VOLUME / MONOCYTE / NEUTROPHIL / NUCLEATED RED BLOOD CELLS / PLATELET COUNT: tissue Blood; for ALANINE AMINOTRANSFERASE / ALBUMIN / ALKALINE PHOSPHATASE / ASPARTATE AMINOTRANSFERASE / BLOOD UREA NITROGEN / CARBON DIOXIDE / CHLORIDE / CHOLESTEROL / CREATINE PHOSPHOKINASE / CREATININE / GLUCOSE / LACTATE DEHYDROGENASE / LIPASE / PHOSPHORUS / POTASSIUM / SODIUM / TOTAL BILIRUBIN / TOTAL PROTEIN / URIC ACID: tissue Plasma

## Cc1cn([C@H]2C[C@H](N=[N+]=[N-])[C@@H](CO)O2)c(=O)[nH]c1=O [ZIDOVUDINE]
72 h, time 3 day
  ABSOLUTE BASOPHIL: 0 CELLS/uL
  ABSOLUTE EOSINOPHIL: 0 CELLS/uL
  ABSOLUTE LYMPHOCYTE: 11829.67 CELLS/uL
  ABSOLUTE MONOCYTE: 82 CELLS/uL
  ABSOLUTE SEGMENTED NEUTROPHIL: 955 CELLS/uL
  BASOPHIL: 0%
  EOSINOPHIL: 0%
  ERYTHROCYTE COUNT: 5.26 x10E6/uL
  HEMATOCRIT: 33.23%
  HEMOGLOBIN: 13.43 G/DL
  LEUKOCYTE COUNT: 12.87 x10E3/uL
  LYMPHOCYTE: 92%
  MEAN CORPUSCULAR HEMOGLOBIN: 25.67 pg
  MEAN CORPUSCULAR HEMOGLOBIN CONCENTRATION: 40.47 G/DL
  MEAN CORPUSCULAR VOLUME: 63.37 fL
  MONOCYTE: 0.67%
  NEUTROPHIL: 7.33%
  NUCLEATED RED BLOOD CELLS: 0 /100WBC
  PLATELET COUNT: 1228 x10E3/uL
  ALANINE AMINOTRANSFERASE: 73.67 u/L
  ALBUMIN: 4.1 G/DL
  ALKALINE PHOSPHATASE: 470 u/L
  ASPARTATE AMINOTRANSFERASE: 86 u/L
  BLOOD UREA NITROGEN: 12 mg/dL
  CARBON DIOXIDE: 32.67 mmol/L
  CHLORIDE: 102.33 MEQ/L
  CHOLESTEROL: 68 mg/dL
  CREATINE PHOSPHOKINASE: 377 u/L
  CREATININE: 0.14 mg/dL
  GLUCOSE: 156.33 mg/dL
  LACTATE DEHYDROGENASE: 235.67 u/L
  LIPASE: 11.67 u/L
  PHOSPHORUS: 10.87 mg/dL
  POTASSIUM: 6.46 MEQ/L
  SODIUM: 141.6 MEQ/L
  TOTAL BILIRUBIN: 0.17 mg/dL
  TOTAL PROTEIN: 5.57 G/DL
  URIC ACID: 1.57 mg/dL
120 h, time 5 day
  ABSOLUTE BASOPHIL: 0 CELLS/uL
  ABSOLUTE EOSINOPHIL: 0 CELLS/uL
  ABSOLUTE LYMPHOCYTE: 15346 CELLS/uL
  ABSOLUTE MONOCYTE: 401.67 CELLS/uL
  ABSOLUTE SEGMENTED NEUTROPHIL: 2019 CELLS/uL
  BASOPHIL: 0%
  EOSINOPHIL: 0%
  ERYTHROCYTE COUNT: 5.55 x10E6/uL
  HEMATOCRIT: 35.13%
  HEMOGLOBIN: 14.03 G/DL
  LEUKOCYTE COUNT: 17.77 x10E3/uL
  LYMPHOCYTE: 86%
  MEAN CORPUSCULAR HEMOGLOBIN: 25.3 pg
  MEAN CORPUSCULAR HEMOGLOBIN CONCENTRATION: 39.97 G/DL
  MEAN CORPUSCULAR VOLUME: 63.37 fL
  MONOCYTE: 2.33%
  NEUTROPHIL: 11.67%
  NUCLEATED RED BLOOD CELLS: 0 /100WBC
  PLATELET COUNT: 1138.33 x10E3/uL
  ALANINE AMINOTRANSFERASE: 62 u/L
  ALBUMIN: 4.3 G/DL
  ALKALINE PHOSPHATASE: 450.33 u/L
  ASPARTATE AMINOTRANSFERASE: 81.67 u/L
  BLOOD UREA NITROGEN: 12.33 mg/dL
  CARBON DIOXIDE: 30.67 mmol/L
  CHLORIDE: 101 MEQ/L
  CHOLESTEROL: 72.67 mg/dL
  CREATINE PHOSPHOKINASE: 317 u/L
  CREATININE: 0.25 mg/dL
  GLUCOSE: 162.33 mg/dL
  LACTATE DEHYDROGENASE: 138 u/L
  LIPASE: 11 u/L
  PHOSPHORUS: 11.9 mg/dL
  POTASSIUM: 6.72 MEQ/L
  SODIUM: 143.47 MEQ/L
  TOTAL BILIRUBIN: 0.2 mg/dL
  TOTAL PROTEIN: 5.87 G/DL
  URIC ACID: 1.9 mg/dL

From ChEMBL document CHEMBL3885881, “DrugMatrix”
